Measured values as given in US20240228482A1, “COMPOUNDS, COMPOSITIONS AND METHODS OF TREATING CANCER” (HOTSPOT THERAPEUTICS, INC., priority 2021, published 2024).

Target: T1, CBL-B (Homo sapiens, UniProt Q13191)
T1 construct: GST
Experiment: CBL-B TR-FRET IC50 screening (E1/E2 ubiquitination, Biotin-Ubiquitin, Anti GST-Tb donor / Streptavidin-d2 acceptor)
Type: biochemical
Details: CBL-B 10 nM final; 11-point titration from 100 uM; binned A-F; read-out: CBL-B TR-FRET activity IC50

T1 sequence (Q13191 whole entry): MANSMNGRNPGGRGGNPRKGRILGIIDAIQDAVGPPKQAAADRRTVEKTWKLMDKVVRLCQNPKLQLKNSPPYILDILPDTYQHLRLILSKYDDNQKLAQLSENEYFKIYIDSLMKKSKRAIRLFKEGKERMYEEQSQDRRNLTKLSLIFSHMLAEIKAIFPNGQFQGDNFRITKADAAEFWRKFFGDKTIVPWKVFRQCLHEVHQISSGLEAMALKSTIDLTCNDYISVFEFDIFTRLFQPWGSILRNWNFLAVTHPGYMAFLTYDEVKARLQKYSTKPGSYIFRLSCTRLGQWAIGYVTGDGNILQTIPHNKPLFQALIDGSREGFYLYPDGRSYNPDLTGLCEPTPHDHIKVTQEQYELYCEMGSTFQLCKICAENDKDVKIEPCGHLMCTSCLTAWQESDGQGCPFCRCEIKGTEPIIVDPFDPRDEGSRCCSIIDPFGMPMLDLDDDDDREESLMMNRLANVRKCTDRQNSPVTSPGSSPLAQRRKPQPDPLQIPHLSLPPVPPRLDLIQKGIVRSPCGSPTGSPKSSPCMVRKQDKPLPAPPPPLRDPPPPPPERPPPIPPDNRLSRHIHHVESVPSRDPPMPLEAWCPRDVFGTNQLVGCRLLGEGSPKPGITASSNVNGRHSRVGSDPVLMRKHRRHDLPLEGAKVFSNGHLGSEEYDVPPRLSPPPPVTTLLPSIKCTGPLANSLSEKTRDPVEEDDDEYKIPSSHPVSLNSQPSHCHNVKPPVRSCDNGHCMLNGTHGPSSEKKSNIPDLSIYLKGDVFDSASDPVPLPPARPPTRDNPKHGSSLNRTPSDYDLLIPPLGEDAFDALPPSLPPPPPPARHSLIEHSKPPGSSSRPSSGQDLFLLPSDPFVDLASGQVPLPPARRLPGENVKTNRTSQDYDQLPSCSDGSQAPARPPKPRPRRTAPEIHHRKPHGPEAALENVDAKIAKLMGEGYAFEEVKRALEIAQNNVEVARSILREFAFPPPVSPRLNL

SMILES | IC50 [nM]
Cn1cnnc1CC1(c2cccc(-n3cc4c(C(F)(F)F)cc(CN5CCOC(C)(C)C5)cn4c3=O)c2)COC1 [Compound 153] | < 100
C[C@H]1CCCN(Cc2cc(C(F)(F)F)c3cn(-c4cccc(N(C)Cc5nncn5C)c4)c(=O)n3c2)C1 [Compound 155] | 3000 to 10000
Cn1cnnc1[C@H](c1cccc(-n2cc3c(C(F)(F)F)cc(CN4CC[C@H](F)C4)cn3c2=O)c1)C1CCC1 [Compound 158] | 3000 to 10000
Cn1cnnc1[C@H](c1cccc(-n2cc3c(C(F)(F)F)cc(CN4CCC(C)(F)CC4)cn3c2=O)c1)C1CCC1 [Compound 160] | 1000 to 3000
Cn1cnnc1CC1(c2cccc(-n3cc4c(C(F)(F)F)cc(CN5CCCC[C@H](O)C5)cn4c3=O)c2)COC1 [Compound 166] | < 100
Cn1cnnc1CC1(c2cccc(-n3cc4c(C(F)(F)F)cc(CN5CCCC[C@@H](O)C5)cn4c3=O)c2)COC1 [Compound 167] | < 100
Cc1conc1CC1(c2cccc(-n3cc4c(C(F)(F)F)cc(Br)cn4c3=O)c2)COC1 [Compound 168] | 100 to 300
CNS(=O)(=O)c1cc(C(F)(F)F)c2cn(-c3cccc(C4(Cc5nncn5C)COC4)c3)c(=O)n2c1 [Compound 175] | 1000 to 3000
Cn1cnnc1CC1(c2cccc(-n3cc4c(C(F)(F)F)cc(C5CCN(CC(F)(F)F)CC5)cn4c3=O)c2)COC1 [Compound 178] | 301 to 1000
Cn1cnnc1CC1(c2cccc(-n3cc4c(C(F)(F)F)cc(C5(O)CCNCC5)cn4c3=O)c2)COC1 [Compound 179] | 100 to 300
Cn1cnnc1CC1(c2cc(Br)cc(-n3cc4c(C(F)(F)F)cccn4c3=O)c2)COC1 [Compound 180] | 3000 to 10000
Cn1cnnc1COc1cccc(-n2cc3c(C(F)(F)F)cc(Br)cn3c2=O)c1 [Compound 181] | > 10000
CN1CCC(O)(c2cc(C(F)(F)F)c3cn(-c4cccc(C5(Cc6nncn6C)COC5)c4)c(=O)n3c2)CC1 [Compound 182] | 301 to 1000
C[C@H]1CCCN(Cc2cc(C(F)(F)F)c3cn(-c4cc(C#N)cc(C5(Cc6nncn6C)COC5)c4)c(=O)n3c2)C1 [Compound 183] | < 100
CC1CC(c2cccc(-n3cc4c(C(F)(F)F)cc(C#N)cn4c3=O)c2)(c2nncn2C)C1 (centres unmarked) [Compound 184] | < 100
Cc1conc1CC1(c2cccc(-n3cc4c(C(F)(F)F)cc(CN5CCC[C@H](C)C5)cn4c3=O)c2)COC1 [Compound 185] | 100 to 300
CN1CC(Cc2nncn2C)(c2cccc(-n3cc4c(C(F)(F)F)cccn4c3=O)c2)C1 [Compound 188] | > 10000
Cc1cn(C)nc1CC1(c2cccc(-n3cc4c(C(F)(F)F)cc(CN5CCC[C@H](C)C5)cn4c3=O)c2)COC1 [Compound 197] | 3000 to 10000
[2H]C([2H])([2H])n1cnnc1CC1(c2cccc(-n3cc4c(C(F)(F)F)cc(CN5CCC[C@H](C)C5)cn4c3=O)c2)COC1 [Compound 198] | < 100
[2H]C([2H])([2H])n1cnnc1CC1(c2cccc(-n3cc4c(C(F)(F)F)cc(CN5CCO[C@H](C)C5)cn4c3=O)c2)COC1 [Compound 199] | < 100
C[C@H]1CCCN(Cc2cc(C(F)(F)F)c3cn(-c4cccc(OCc5nncn5C)c4)c(=O)n3c2)C1 [Compound 200] | > 10000
C[C@@H]1CN(Cc2cc(C(F)(F)F)c3cn(-c4cccc(C5(Cc6nncn6C)COC5)c4)c(=O)n3c2)C[C@@H](C)O1 [Compound 201] | < 100

SMILES | IC50 [nM]
Cn1cnnc1CC1(c2cccc(-n3cc4c(C(F)(F)F)cc(CN5CCCC(O)C5)cn4c3=O)c2)COC1 (centres unmarked) [Compound 206] | 301 to 1000
Cc1c[nH]nc1CC1(c2cccc(-n3cc4c(C(F)(F)F)cc(CN5CCC[C@H](C)C5)cn4c3=O)c2)COC1 [Compound 207] | < 100
CC(=O)N(c1cccc(-n2cc3c(C(F)(F)F)cccn3c2=O)c1)c1nncn1C [Compound 208] | > 10000
[2H]c1nnc(CC2(c3cccc(-n4cc5c(C(F)(F)F)cc(CN6CCC[C@H](C)C6)cn5c4=O)c3)COC2)n1C [Compound 209] | < 100
O=c1n(-c2cccc(C3(Cc4nnc5n4CCC5)COC3)c2)cc2c(C(F)(F)F)cccn12 [Compound 210] | > 10000
Cn1cnnc1N(c1cccc(-n2cc3c(C(F)(F)F)cccn3c2=O)c1)C1COC1 [Compound 211] | 1000 to 3000
Cn1cnnc1[C@]1(c2cccc(-n3cc4c(C(F)(F)F)cc(C#N)cn4c3=O)c2)C[C@H](C)C1 [Compound 212] | 100 to 300
Cn1cnnc1[C@]1(c2cccc(-n3cc4c(C(F)(F)F)cc(CN5CC[C@H](F)C5)cn4c3=O)c2)C[C@@H](C)C1 [Compound 216] | < 100
Cc1c[nH]nc1[C@@H](c1cccc(-n2cc3c(C(F)(F)F)cc(CN4CCC[C@H](C)C4)cn3c2=O)c1)C1CCC1 [Compound 219] | < 100
Cc1c[nH]nc1[C@H](c1cccc(-n2cc3c(C(F)(F)F)cc(CN4CCO[C@H](C)C4)cn3c2=O)c1)C1CCC1 [Compound 220] | 3000 to 10000
Cc1c[nH]nc1[C@@H](c1cccc(-n2cc3c(C(F)(F)F)cc(CN4CCO[C@H](C)C4)cn3c2=O)c1)C1CCC1 [Compound 221] | 100 to 300
COC1CCN(Cc2cc(C(F)(F)F)c3cn(-c4cccc([C@H](c5nncn5C)C5CCC5)c4)c(=O)n3c2)CC1 [Compound 225] | < 100
Cn1cnnc1[C@]1(c2cccc(-n3cc4c(C(F)(F)F)cc(CN5CC6(CC6)C5)cn4c3=O)c2)C[C@@H](C)C1 [Compound 228] | < 100
Cn1cnnc1[C@]1(c2cccc(-n3cc4c(C(F)(F)F)cc(CN5CCC(F)CC5)cn4c3=O)c2)C[C@@H](C)C1 [Compound 229] | < 100
Cn1cnnc1C1(c2cccc(-n3cc4c(C(F)(F)F)cc(Br)cn4c3=O)c2)COC1 [Compound 230] | > 10000
Cc1cc(-n2cc3c(C(F)(F)F)cc(Br)cn3c2=O)cc(C2(Cc3nncn3C)COC2)c1 [Compound 238] | 1000 to 3000
Cc1cc(-n2cc3c(C(F)(F)F)cc(CN4CCC[C@H](C)C4)cn3c2=O)cc(C2(Cc3nncn3C)COC2)c1 [Compound 239] | < 100
Cc1c[nH]nc1C1(c2cccc(-n3cc4c(C(F)(F)F)cc(CN5CCO[C@H](C)C5)cn4c3=O)c2)CC2(CC2)C1 [Compound 241] | 301 to 1000
C[C@@H]1CN(Cc2cc(C(F)(F)F)c3cn(-c4cccc([C@H](c5nncn5C)C5CCC5)c4)c(=O)n3c2)CCO1 [Compound 244] | < 100
Cn1cnnc1[C@@H](c1cccc(-n2cc3c(C(F)(F)F)cc(CN4CCC(C)(C)C4)cn3c2=O)c1)C1CCC1 [Compound 245] | < 100
CC(C)CN(C)Cc1cc(C(F)(F)F)c2cn(-c3cccc([C@H](c4nncn4C)C4CCC4)c3)c(=O)n2c1 [Compound 246] | < 100
C[C@H]1CCN(Cc2cc(C(F)(F)F)c3cn(-c4cccc([C@H](c5nncn5C)C5CCC5)c4)c(=O)n3c2)C1 [Compound 247] | < 100

SMILES | IC50 [nM]
C[C@@H]1CCN(Cc2cc(C(F)(F)F)c3cn(-c4cccc([C@H](c5nncn5C)C5CCC5)c4)c(=O)n3c2)C1 [Compound 248] | < 100
CO[C@@H]1CCN(Cc2cc(C(F)(F)F)c3cn(-c4cccc([C@H](c5nncn5C)C5CCC5)c4)c(=O)n3c2)C1 [Compound 249] | < 100
CO[C@H]1CCCN(Cc2cc(C(F)(F)F)c3cn(-c4cccc([C@H](c5nncn5C)C5CCC5)c4)c(=O)n3c2)C1 [Compound 250] | < 100
CO[C@@H]1CCCN(Cc2cc(C(F)(F)F)c3cn(-c4cccc([C@H](c5nncn5C)C5CCC5)c4)c(=O)n3c2)C1 [Compound 251] | < 100
COC1(CNCc2cc(C(F)(F)F)c3cn(-c4cccc(C5(Cc6nncn6C)COC5)c4)c(=O)n3c2)CC1 [Compound 252] | < 100
Cn1cnnc1CC1(c2cccc(-n3cc4c(C(F)(F)F)cc(CNCC5CCCO5)cn4c3=O)c2)COC1 (centres unmarked) [Compound 253] | < 100
Cn1cnnc1CC1(c2cc(C#N)cc(-n3cc4c(C(F)(F)F)cc(Br)cn4c3=O)c2)COC1 [Compound 254] | 1000 to 3000
C[C@H]1CCCN(Cc2cc(C(F)(F)F)c3cn(-c4cccc([C@]5(c6nncn6C)C[C@@H](O)C5)c4)c(=O)n3c2)C1 [Compound 255] | < 100
Cn1cnnc1[C@@H](c1cccc(-n2cc3c(C(F)(F)F)cc(CN4CCC(=O)N4)cn3c2=O)c1)C1CCC1 [Compound 258] | < 100
CO[C@H]1CCN(Cc2cc(C(F)(F)F)c3cn(-c4cccc([C@H](c5nncn5C)C5CCC5)c4)c(=O)n3c2)C1 [Compound 259] | < 100
C[C@H]1CCCN(Cc2cc(C(F)(F)F)c3cn(-c4cccc(N(c5nncn5C)C5CCC5)c4)c(=O)n3c2)C1 [Compound 260] | < 100
Cn1cnnc1[C@@H](c1cccc(-n2cc3c(C(F)(F)F)cc(CN4CCc5ncsc5C4)cn3c2=O)c1)C1CCC1 [Compound 265] | < 100
CO[C@H](C)CNCc1cc(C(F)(F)F)c2cn(-c3cccc(C4(Cc5nncn5C)COC4)c3)c(=O)n2c1 [Compound 266] | < 100
Cc1c[nH]nc1[C@H](c1cccc(-n2cc3c(C(F)(F)F)cc(CN4CCO[C@H](C)C4)cn3c2=O)c1)C1COC1 [Compound 267] | > 10000
Cc1c[nH]nc1[C@@H](c1cccc(-n2cc3c(C(F)(F)F)cc(CN4CCO[C@H](C)C4)cn3c2=O)c1)C1COC1 [Compound 268] | > 10000
C[C@H]1CCCN(Cc2cc(C(F)(F)F)c3cn(-c4cccc([C@@H](c5nnc[nH]5)C5CCC5)c4)c(=O)n3c2)C1 [Compound 269] | < 100
C[C@H]1CCCN(Cc2cc(C(F)(F)F)c3cn(-c4cccc([C@H](c5ncn[nH]5)C5CCC5)c4)c(=O)n3c2)C1 [Compound 270] | > 10000
CN(Cc1cc(C(F)(F)F)c2cn(-c3cccc([C@H](c4nncn4C)C4CCC4)c3)c(=O)n2c1)Cc1cncs1 [Compound 275] | < 100
Cn1cnnc1[C@@H](c1cccc(-n2cc3c(C(F)(F)F)cc(CN4CC5(CSC5)C4)cn3c2=O)c1)C1CCC1 [Compound 276] | < 100
Cc1cc(-n2cc3c(C(F)(F)F)cc(CN4CCO[C@H](C)C4)cn3c2=O)cc(C2(Cc3nncn3C)COC2)c1 [Compound 277] | > 10000
[2H]C([2H])([2H])n1cnnc1CC1(c2cccc(-n3cc4c(C(F)(F)F)cc([C@H](C)N5CCC[C@H](C)C5)cn4c3=O)c2)COC1 [Compound 278_P1] | < 100
